This experiment concerns the target T1, cyclic AMP phosphodiesterase (Oryctolagus cuniculus, UniProt G1ST54).
T1 construct: the supernatant was collected to use it as a crude enzyme solution; from tissue; host or cells: rabbit platelets (from platelet-rich plasma), 100,000 xg supernatant, DEAE-cellulose fraction
T1 sequence (G1ST54 1-1128): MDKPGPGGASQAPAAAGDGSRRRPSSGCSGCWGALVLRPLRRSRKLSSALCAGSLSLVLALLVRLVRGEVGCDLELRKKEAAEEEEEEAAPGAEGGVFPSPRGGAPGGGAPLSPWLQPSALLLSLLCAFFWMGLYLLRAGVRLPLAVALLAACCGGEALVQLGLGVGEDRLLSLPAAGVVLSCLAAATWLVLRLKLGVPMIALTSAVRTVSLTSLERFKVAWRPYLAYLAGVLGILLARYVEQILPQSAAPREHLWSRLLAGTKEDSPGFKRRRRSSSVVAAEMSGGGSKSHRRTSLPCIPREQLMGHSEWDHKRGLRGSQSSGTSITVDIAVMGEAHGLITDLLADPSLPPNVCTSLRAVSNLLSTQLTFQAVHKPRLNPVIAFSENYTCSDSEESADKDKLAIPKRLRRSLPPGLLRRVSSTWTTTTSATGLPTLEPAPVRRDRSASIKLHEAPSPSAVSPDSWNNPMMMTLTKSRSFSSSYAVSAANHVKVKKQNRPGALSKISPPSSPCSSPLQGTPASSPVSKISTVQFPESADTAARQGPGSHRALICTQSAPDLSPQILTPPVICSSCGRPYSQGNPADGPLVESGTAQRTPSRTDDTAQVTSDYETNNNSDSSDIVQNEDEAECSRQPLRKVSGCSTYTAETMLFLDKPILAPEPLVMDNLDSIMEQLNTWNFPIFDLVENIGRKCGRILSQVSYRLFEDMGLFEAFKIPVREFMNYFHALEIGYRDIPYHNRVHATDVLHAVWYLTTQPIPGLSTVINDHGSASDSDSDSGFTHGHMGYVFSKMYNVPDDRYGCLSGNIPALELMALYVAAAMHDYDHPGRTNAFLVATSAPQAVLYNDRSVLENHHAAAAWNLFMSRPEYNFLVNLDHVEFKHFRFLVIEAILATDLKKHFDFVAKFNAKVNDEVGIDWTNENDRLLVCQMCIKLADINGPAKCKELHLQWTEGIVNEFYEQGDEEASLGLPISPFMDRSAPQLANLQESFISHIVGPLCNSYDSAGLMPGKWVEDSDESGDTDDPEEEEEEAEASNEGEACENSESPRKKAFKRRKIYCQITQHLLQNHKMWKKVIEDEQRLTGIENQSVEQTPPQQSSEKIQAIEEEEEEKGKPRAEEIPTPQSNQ
The experiment can be described thus: Obstructive action against cyclic AMP phosphodiesterase. It is filed as biochemical, rabbit. On the procedure:
The obstructive action against cyclic AMP phosphodiesterase was measured according to the activity measuring method described in "Biochimica et Biophysica Acta", Vol. 429, pp. 485-497 (1976) and "Biochemical Medicine", Vol. 10, pp. 301-311 (1974).
That is, for determining the obstructive activity against cyclic AMP phosphodiesterase, 10 ml of a solution obtained by adding 1 mmol of MgCl2 into 50 mmol of tris-hydrochloric acid buffer with pH 7.4 was added to the platelets obtained by further centrifuging the abovesaid rabbit PRP at 3,000 r.p.m. for 10 minutes, and the suspended platelets were ground by a Teflon potter type homogenizer. This was followed by two times of freezing and thawing treatment and 300-second fracturing with 200 watt supersonic waves. After additional 60-minute centrifugation with 100,000 xg, the supernatant was collected to use it as a crude enzyme solution.
10 Milliliters of this crude buffer solution was added to a 1.5×20 cm DEAE-cellulose column which has previously been buffered with 50 mmol of tris-acetate buffer (pH 6.0), followed by washing and elution with 30 ml of 50 mmol tris-acetate buffer, and this buffer solution was subjected to linear gradient elution with 0 to 0.5 moles of sodium acetate-tris-acetatebuffer. The flow rate was 0.5 ml/min, and 5 ml of each fraction was batched out. […] This fraction was used as cyclic AMP phosphodiesterase.
0.1 Milliliter of an aqueous solution of each test compound of a specified concentration was mixed with 40 mmol of tris-hydrochloric acid buffer (pH 8.0, containing 50 μg of cow serum albumin and 4 mmol of MgCl2) containing predetermined 1.0 μmol of cyclic AMP (tritium cyclic AMP), and 0.2 ml of this mixed solution was used as substrate solution.
0.2 Milliliter of the above-prepared cyclic AMP phosphodiesterase of a predetermined concentration was added to said substrate solution and the mixture was reaction at 30° C. for 20 minutes, producing tritium 5'-AMP from the tritium cyclic AMP.
The reaction system was then immersed in boiling water for 2 minutes to stop the reaction, and then this reaction solution was cooled in ice water and, for converting the produced tritium 5'-AMP into tritium adenosine, the solution was added with 0.05 ml (1 mg/ml) of snake poison as 5'-nucleotidase and reacted at 30° C. for 10 minutes. The whole amount of this reaction solution was then added to a cation exchange resin (AG 500 W×4, 200-400 meshes, manufactured by Bio-Rad Co., column size: 0.5×1.5 cm), and the produced tritium anodesine alone was allowed to combine, washed with 6 ml of distilled water and eluted with 1.5 ml of 3 N-ammonia water. The whole quantity of the elutant was added with 10 ml of a triton-toluene type scintillator and the produced tritium adenosine was measured by a liquid scintillation counter to determine the phosphodiesterase activity.
In this way, the phosphodiesterase activation value (Vs) of the test compounds of the respective concentrations was determined, and the phosphodiesterase obstruction rate (%) was determined from said activation value (Vs) and control value (Vc) (obtained from water not containing any test compound) from the following formula: [formula]

Where [1] appears, read: pH 8, read-out: phosphodiesterase obstruction rate.

Where two headings read alike, the source gives them in different places.

Among the data in patent publication US4298739A, “Novel carbostyril derivatives” (priority 1977, dated 1981) are inhibition values, retold here.

As for `CN(C(=O)CCCOc1ccc2[nH]c(=O)ccc2c1)C1CCCCC1` [compound 16, 6-[3-(N-Methyl-N-cyclohexylaminocarbonyl)propoxy]carbostyril], under setting [1], the inhibition at 0.001 µM stood at 7.1%, the inhibition at 0.01 µM is 22.3%, the inhibition at 0.1 µM is 79.3% and the inhibition at 1 µM stood at 87.5%. Under setting [1], the inhibition at 10 µM stood at 80.5%.
For `CC(=O)OC1CCC(N(C)C(=O)CCCOc2ccc3[nH]c(=O)ccc3c2)CC1` (stereo not shown) [compound 3, 6-{3-[N-Methyl-N-(4-acetyloxycyclohexyl)aminocarbonyl]propoxy}carbostyril], the inhibition at 10 µM (10^-5 mole, 1.0 μmol cyclic AMP, pH 8.0, 30° C., read-out: phosphodiesterase obstruction rate) came out at 98.5%. For the setting “10^-6 mole, 1.0 μmol cyclic AMP, pH 8.0, 30° C., read-out: phosphodiesterase obstruction rate”, the inhibition at 1 µM came out at 95.5%. For the setting “10^-7 mole, 1.0 μmol cyclic AMP, pH 8.0, 30° C., read-out: phosphodiesterase obstruction rate”, the inhibition at 0.1 µM came to 88.4%. Moreover, the inhibition at 0.01 µM (10^-8 mole, 1.0 μmol cyclic AMP, pH 8.0, 30° C., read-out: phosphodiesterase obstruction rate) came out at 61.1%. The inhibition at 0.001 µM (10^-9 mole, 1.0 μmol cyclic AMP, pH 8.0, 30° C., read-out: phosphodiesterase obstruction rate) amounted to 13.4%.
